Laboratory results as given in PubChem BioAssay (NCI).
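Exposure lasted 48 hours, with cells grown in 96-well plates and compounds tested at five concentrations. Abbreviation: GI50, concentration required for 50% inhibition of growth. Definition used: TGI = concentration required for complete inhibition of growth.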

Experiments:
Assay in all cases: inhibition of tumour cell growth, NCI panel, 48 h
COLO 205 colon = tested on: COLO 205 colon
HCC-2998 colon = tested on: HCC-2998 colon
HOP-92 NSCLC = tested on: HOP-92 NSCLC
M14 melanoma = tested on: M14 melanoma
OVCAR-3 ovarian = tested on: OVCAR-3 ovarian
SK-MEL-28 melanoma = tested on: SK-MEL-28 melanoma
SN12C renal = tested on: SN12C renal
SNB-75 CNS = tested on: SNB-75 CNS
SW-620 colon = tested on: SW-620 colon
U251 CNS = tested on: U251 CNS

SMILES	GI50 (COLO 205 colon) [µM]	TGI (COLO 205 colon) [µM]	GI50 (HCC-2998 colon) [µM]	TGI (HCC-2998 colon) [µM]	GI50 (HOP-92 NSCLC) [µM]	TGI (HOP-92 NSCLC) [µM]	GI50 (M14 melanoma) [µM]	TGI (M14 melanoma) [µM]	GI50 (OVCAR-3 ovarian) [µM]	TGI (OVCAR-3 ovarian) [µM]	GI50 (SK-MEL-28 melanoma) [µM]	TGI (SK-MEL-28 melanoma) [µM]	GI50 (SN12C renal) [µM]	TGI (SN12C renal) [µM]	GI50 (SNB-75 CNS) [µM]	TGI (SNB-75 CNS) [µM]	GI50 (SW-620 colon) [µM]	TGI (SW-620 colon) [µM]	GI50 (U251 CNS) [µM]	TGI (U251 CNS) [µM]
COc1ccc(C(=O)c2cc3c(N)c(C(=O)Nc4cccc(Br)c4C)sc3nc2C)cc1	0.22	0.987	0.302	> 100	< 0.0445	1.67	0.0267	> 100	0.0394	1.05	> 100	> 100	0.0844	> 100	0.0405	> 100	0.046	> 100	0.0518	> 100
COc1ccc(C2C(C#N)=C(N)Oc3c2sc2c(Br)cccc32)cc1 (stereo not given)	2.23	5.39	1.64	6.25	8.88	26.4	1.46	6.8	0.979	3.75	8.15	24.1	4	17	1.61	8.06	1.87	86.6	3.25	12.4
OC1CCCC2CCC[N-]C12.OC1CCCC2CCC[N-]C12.[O]=[V][OH] (stereo not given)	21.1	81.8	12.7	> 100	22.9	> 100	2.92	14.9	0.359	2.27	21.2	> 100	5.91	> 100	32.8	> 100	3.5	37.5	1.87	5.72
CCOc1ccc(C(C[N+](=O)[O-])Sc2ccccc2N)cc1 (stereo not given)	4.74	16.8	1.77	3.25	16.5	30.9	6.6	19.5	2.92	12	4.03	14.8	3.23	13.4	2.8	17.4	1.73	4.45	2.96	10.6
O=C(Nc1cc(Cl)ccc1O)c1ccccc1Nc1ccnc(C(F)(F)F)c1	2.38	5.4	3	7.41	2.58	8.72	2.62	8.71	1.7	4.8	3	12.2	2.84	10.7	2.17	6.55	3.15	11.7	4.91	> 100
N#C/C(=C1\OC(=N)C(c2ccccc2)C1=O)c1ccccc1 (stereo not given)	–	44.2	–	> 100	–	> 71.3	–	> 59.5	–	> 67.7	–	20.2	–	> 81.6	–	> 85.7	–	59.1	–	> 100
Clc1cccc(CNc2c3ccccc3nc3ccccc23)c1	1.54	3.88	1.65	3.19	1.12	3.82	1.53	3.02	2.1	4.56	1.7	3.25	2.36	11	1.76	6.44	1.47	3.91	2	4.56
O=C(NCCOCCOCCOCCNC(=O)c1cc2c(o1)C(=O)c1ccccc1C2=O)NC12CC3CC(CC(C3)C1)C2	1.96	3.97	1.99	4.02	3.08	10.7	0.462	1.8	1.41	4.4	1.94	3.75	1.34	2.71	2.25	4.06	2.35	7.26	2.04	5
O=C1C=C2CCCC2C(C(=O)O)(C(=O)O)C1 (stereo not given)	–	> 100	–	> 100	–	> 100	–	> 100	–	> 100	–	> 100	–	> 100	–	> 100	–	> 100	–	> 100
COc1ccccc1[As]=[As]c1ccccc1OC (stereo not given)	0.0209	0.0475	0.0785	0.218	0.102	0.228	0.0407	0.147	0.0234	0.0531	0.0437	0.153	0.0489	0.179	0.0305	0.13	0.0182	0.0403	0.0145	0.0311
CC1C=CC(C(N)C(=O)O)O1 (stereo not given)	–	> 100	–	> 100	–	> 100	–	> 100	–	> 100	–	> 100	–	> 100	–	> 100	–	> 100	–	> 100
O=C(Nc1cc(F)c(F)cc1C(=O)O)c1ccc(-n2ccnc2)nn1	> 100	> 100	> 100	> 100	> 100	> 100	> 100	> 100	42.4	> 100	> 100	> 100	> 100	> 100	> 100	> 100	> 100	> 100	> 100	> 100
Oc1ccc2ccccc2c1C=NCc1c(O)ccc2ccccc12	–	> 100	–	> 100	–	> 100	–	> 100	–	> 100	–	> 100	–	> 100	–	> 100	–	> 100	–	> 100
COc1ccc2c(O)c(/C=C3\N=Nc4ncccc43)oc2c1C[C@@H]1CCNC[C@H]1F	0.323	1.43	1.67	4.09	4.7	9.21	0.557	2.2	0.485	2.74	2.22	7.25	0.458	2.22	0.378	1.94	0.34	1.12	0.299	1.2
